Laboratory results as given in patent US7799792B2, “Metabotropic glutamate receptor oxadiazole ligands and their use as potentiators 841” (AstraZeneca AB, priority 2007, dated 2010).
In brackets after ≈: the same amount, converted by molar mass.

Assays:
human mGluR2 receptor = molecular target: T1, human mGluR2 receptor (Homo sapiens, UniProt Q14416); experiment: [35S]-GTPγS binding assay of mGluR2 receptor activation (allosteric activator activity); format: biochemical; conditions: membranes from CHO cells stably expressing human mGluR2; 1 μM glutamate; read-out: GTPgS EC50
T1 construct: expressed in transfected cells; host or cells: CHO cells, stably transfected; membranes
T1 sequence (Q14416 19-872): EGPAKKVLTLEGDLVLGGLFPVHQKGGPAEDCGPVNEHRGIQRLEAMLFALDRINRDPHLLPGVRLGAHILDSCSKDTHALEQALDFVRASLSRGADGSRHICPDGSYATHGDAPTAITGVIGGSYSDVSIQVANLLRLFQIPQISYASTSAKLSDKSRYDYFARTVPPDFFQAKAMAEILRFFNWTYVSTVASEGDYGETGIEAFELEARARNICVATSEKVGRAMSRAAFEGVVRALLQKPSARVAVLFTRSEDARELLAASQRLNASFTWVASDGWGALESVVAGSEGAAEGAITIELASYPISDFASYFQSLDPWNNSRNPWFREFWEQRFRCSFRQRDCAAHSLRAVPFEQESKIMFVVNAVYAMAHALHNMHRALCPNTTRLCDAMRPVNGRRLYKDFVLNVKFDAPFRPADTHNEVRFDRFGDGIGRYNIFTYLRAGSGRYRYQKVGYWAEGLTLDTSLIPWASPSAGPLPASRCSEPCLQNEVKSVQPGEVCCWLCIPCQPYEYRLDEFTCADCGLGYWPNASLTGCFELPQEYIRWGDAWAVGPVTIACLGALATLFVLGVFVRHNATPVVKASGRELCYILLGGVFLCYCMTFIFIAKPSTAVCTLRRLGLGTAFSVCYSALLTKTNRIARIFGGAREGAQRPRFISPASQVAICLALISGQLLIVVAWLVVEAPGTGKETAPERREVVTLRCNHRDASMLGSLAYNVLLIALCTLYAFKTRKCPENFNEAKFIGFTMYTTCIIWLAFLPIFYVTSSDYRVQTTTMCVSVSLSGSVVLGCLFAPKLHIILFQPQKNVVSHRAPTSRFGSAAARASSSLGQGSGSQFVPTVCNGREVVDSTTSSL
Method: A [^35S]-GTPγS binding assay was used to functionally assay mGluR2 receptor activation. The allosteric activator activity of compounds at the human mGluR2 receptor were measured using a [^35S]-GTPγS binding assay with membranes prepared from CHO cells which stably express the human mGluR2. The assay is based upon the principle that agonists bind to G-protein coupled receptors to stimulate GDP-GTP exchange at the G-protein. Since [^35S]-GTPγS is a non-hydrolyzable GTP analog, it can be used to provide an index of GDP-GTP exchange and, thus, receptor activation. The GTPγS binding assay therefore provides a quantitative measure of receptor activation.
Membranes were prepared from CHO cells stably transfected with human mGluR2. Membranes (30 μg protein) were incubated with test compound (3 nM to 300 μM) for 15 minutes at room temperature prior to the addition of 1 μM glutamate, and incubated for 30 min at 30° C. in 500 μl assay buffer (20 mM HEPES, 100 mM NaCl, 10 mM MgCl2), containing 30 μM GDP and 0.1 nM [^35S]-GTPγS (1250 Ci/mmol). Reactions were carried out in triplicate in 2 ml polypropylene 96-well plates. Reactions were terminated by vacuum filtration using a Packard 96-well harvester and Unifilter-96, GF/B filter microplates. The filter plates were washed 4×1.5 ml with ice-cold wash buffer (10 mM sodium phosphate buffer, pH 7.4). The filter plates were dried and 35 μl of scintillation fluid (Microscint 20) was added to each well. The amount of radioactivity bound was determined by counting plates on the Packard TopCount. Data was analyzed using GraphPad Prism, and EC50 and Emax values (relative to the maximum glutamate effect) were calculated using non-linear regression.

[1] = Aqueous solubility in pH 7.4 phosphate buffer; format: physicochemical; conditions: thermodynamic from solid, equilibration 24 h at 25° C., read-out: Aq. solubility
Method: Solubility was determined in pH 7.4 phosphate buffer after equilibration for 24 h at 25° C. and HPLC-UV and LC-MSMS were used for quantitation.

Structure (SMILES) | EC50 (human mGluR2 receptor) [µM] | solubility at 24 h [1] [µM]
Cc1cc(-c2noc(C(C)N3CCNCC3)n2)cc2c1C(=O)N(Cc1ccc(OC(F)(F)F)cc1)C2 (stereo not shown) [Example 12, 7-Methyl-5-[5-(1-piperazin-1-yl-ethyl)-[1,2,4]oxadiazol-3-yl]-2-(4-trifluoromethoxy-benzyl)-2,3-dihydro-isoindol-1-one] | 0.307 | 182 (≈ 91.3 µg/mL)
Cc1cc(-c2noc(CN3CCNCC3)n2)cc2c1C(=O)N(Cc1ccc(OC(F)(F)F)cc1)C2 [Example 3, 7-methyl-5-(5-piperazin-1-ylmethyl-[1,2,4]oxadiazol-3-yl)-2-(4-trifluoro-methoxybenzyl)-2,3-dihydroisoindol-1-one] | 0.147 | 111 (≈ 54.1 µg/mL)
Cc1cc(-c2noc(C(C)N3CCNCC3)n2)cc2c1C(=O)N([C@@H](C)c1ccc(Cl)cc1)C2 (stereo partly drawn) [Example 14, 2-[(S)-1-(4-Chloro-phenyl)-ethyl]-7-methyl-5-[5-(1-piperazin-1-yl-ethyl)-[1,2,4]oxadiazol-3-yl]-2,3-dihydro-isoindol-1-one] | 0.21 | 271 (≈ 126 µg/mL)
Cc1cc(-c2noc(CN3CCNCC3)n2)cc2c1C(=O)N(Cc1ccc(Cl)cc1)C2 [Example 4, 2-(4-chlorobenzyl)-7-methyl-5-(5-piperazin-1-ylmethyl-[1,2,4]oxadiazol-3-yl)-2,3-dihydroisoindol-1-one] | 0.317 | 166 (≈ 72.7 µg/mL)
Cc1cc(-c2noc(C(C)N3CCNCC3)n2)cc2c1C(=O)N(Cc1ccc(Cl)cc1)C2 (stereo not shown) [Example 13, 2-(4-Chloro-benzyl)-7-methyl-5-[5-(1-piperazin-1-yl-ethyl)-[1,2,4]oxadiazol-3-yl]-2,3-dihydro-isoindol-1-one] | 0.283 | 240 (≈ 108 µg/mL)
Cc1cc(-c2noc(CN3CCNCC3)n2)cc2c1C(=O)N([C@@H](C)c1ccc(Cl)cc1)C2 [Example 6, 2-[(S)-1-(4-Chloro-phenyl)-ethyl]-7-methyl-5-(5-piperazin-1-ylmethyl-[1,2,4]oxadiazol-3-yl)-2,3-dihydro-isoindol-1-one] | 0.0478 | 96 (≈ 43.4 µg/mL)
O=C1c2c(Cl)cc(-c3noc(CN4CCNCC4)n3)cc2CN1Cc1ccc(OC(F)(F)F)cc1 [Example 1, 7-Chloro-5-(5-piperazin-1-ylmethyl-[1,2,4]oxadiazol-3-yl)-2-(4-trifluoromethoxybenzyl)-2,3-dihydroisoindol-1-one] | 0.226 | 139 (≈ 70.6 µg/mL)
Cc1cc(-c2noc(CN3CCNC(C)C3)n2)cc2c1C(=O)N(Cc1ccc(Cl)cc1)C2 (stereo not shown) [Example 10, 2-(4-chloro-benzyl)-7-methyl-5-[5-(3-methyl-piperazin-1-ylmethyl)-[1,2,4]oxadiazol-3-yl]-2,3-dihydroisoindol-1-one] | 0.121 | 148 (≈ 66.9 µg/mL)
Cc1cc(-c2noc(CN3C[C@@H]4C[C@H]3CN4)n2)cc2c1C(=O)N(Cc1ccc(OC(F)(F)F)cc1)C2 [Example 5, 5-[5-(2,5-diaza-bicyclo[2.2.1]hept-2-ylmethyl)-[1,2,4]oxadiazol-3-yl]-7-methyl-2-(4-trifluoromethoxybenzyl)-2,3-dihydroisoindol-1-one] | 0.075 | 141 (≈ 70.4 µg/mL)
Cc1cc(-c2noc(CN3CCNC[C@@H]3C)n2)cc2c1C(=O)N(Cc1ccc(Cl)cc1)C2 [Example 9, 2-(4-chloro-benzyl)-7-methyl-5-[5-(2-methyl-piperazin-1-ylmethyl)-[1,2,4]oxadiazol-3-yl]-2,3-dihydroisoindol-1-one] | 0.323 | 158 (≈ 71.4 µg/mL)
Cc1cc(-c2noc(CN3CCNC[C@H]3C)n2)cc2c1C(=O)N(Cc1ccc(Cl)cc1)C2 [Example 8, 2-(4-chloro-benzyl)-7-methyl-5-[5-(2-methyl-piperazin-1-ylmethyl)-[1,2,4]oxadiazol-3-yl]-2,3-dihydroisoindol-1-one] | 0.202 | 228 (≈ 103 µg/mL)
CC1(C)CN(Cc2nc(-c3cc(Cl)c4c(c3)CN(Cc3ccc(OC(F)(F)F)cc3)C4=O)no2)CCN1 [Example 11, 7-chloro-5-[5-(3,3-dimethyl-piperazin-1-ylmethyl)-[1,2,4]oxadiazol-3-yl]-2-(4-trifluoro-methoxybenzyl)-2,3-dihydroisoindol-1-one] | 0.147 | 230 (≈ 123 µg/mL)
Cc1cc(-c2noc(CN3C[C@@H]4C[C@H]3CN4)n2)cc2c1C(=O)N([C@@H](C)c1ccc(Cl)cc1)C2 [Example 7, 2-[(S)-1-(4-Chloro-phenyl)-ethyl]-5-{5-[(1S,4S)-1-(2,5-diaza-bicyclo[2.2.1]hept-2-yl)methyl]-[1,2,4]oxadiazol-3-yl}-7-methyl-2,3-dihydro-isoindol-1-one] | 0.352 | 158 (≈ 73.3 µg/mL)
O=C1c2c(Cl)cc(-c3noc(CN4CCNCC4)n3)cc2CN1Cc1ccc(Cl)cc1 [Example 2, 7-chloro-2-(4-chlorobenzyl)-5-(5-piperazin-1-ylmethyl-[1,2,4]oxadiazol-3-yl)-2,3-dihydroisoindol-1-one] | 0.431 | 176 (≈ 80.7 µg/mL)
